Measurements from ChEMBL document CHEMBL4316596, “Antimicrobial Peptides with High Proteolytic Resistance for Combating Gram-Negative Bacteria” (J Med Chem, 2019).
pIC50: −log10 of the molar value. Calls of active or inactive are those of the source. The calls are words filed in the database; no cut-off is given here.

Key:
Escherichia coli [1] = experiment: Antimicrobial activity against Escherichia coli 078 after 24 hrs by NCCLS-protocol based assay; type: functional; details: Escherichia coli, 078, 24 h
Escherichia coli [2] = experiment: Bactericidal activity against Escherichia coli ATCC 25922 incubated for 4 hrs followed by culture spread on agar plates and cultured overnight in presence of 50% serum albumin; type: functional; details: ATCC 25922, 4 h, read-out: MBC>99.9
Escherichia coli [3] = experiment: Antibacterial activity against Escherichia coli ATCC 25922 infected in ICR mouse assessed as log reduction in bacterial cells in liver at 5 mg/kg, ip administered at 5 mg/kg, ip dosed at 0.5, 2, 4 and 8 hrs post-infection; type: functional
Escherichia coli [4] = experiment: Bactericidal activity against Escherichia coli ATCC 25922 incubated for 4 hrs followed by culture spread on agar plates and cultured overnight in presence of 12.5% serum albumin; type: functional; details: ATCC 25922, 4 h, read-out: MBC>99.9
Escherichia coli [5] = experiment: Induction of cytoplasmic membrane depolarization in Escherichia coli ATCC 25922 at 2 uM up to 5000 secs by DiSC3-5 dye-based fluorescence spectrophotometric method; type: functional, organism-based
[6] = Stability of the compound assessed as Tritirachium album proteinase K-mediated compound hydrolysis by measuring compound helicity by CD spectroscopy; type: ADME; details: parengyodontium album
Escherichia coli [7] = experiment: Antimicrobial activity against Escherichia coli K99 after 24 hrs by NCCLS-protocol based assay; type: functional; details: K99, 24 h
Pseudomonas aeruginosa [8] = experiment: Antimicrobial activity against Pseudomonas aeruginosa ATCC 27853 at sub-MBC after 60 passages; type: functional, organism-based
Pseudomonas aeruginosa [9] = experiment: Antimicrobial activity against Pseudomonas aeruginosa PAO1 after 24 hrs by NCCLS-protocol based assay; type: functional; details: PAO1, 24 h
Escherichia coli [10] = experiment: Antimicrobial activity against Escherichia coli K88 after 24 hrs by NCCLS-protocol based assay; type: functional; details: K88, 24 h
Salmonella typhimurium [11] = experiment: Bactericidal activity against Salmonella typhimurium C7731 incubated for 4 hrs followed by culture spread on agar plates and cultured overnight; type: functional, Salmonella enterica subsp. enterica serovar Typhimurium; details: Salmonella enterica, C7731, 4 h; read-out: MBC>99.9
Escherichia coli [12] = experiment: Induction of outer membrane permeabilization in Escherichia coli ATCC 25922 at 1 uM by NPN-dye based assay relative to control
Klebsiella pneumoniae = experiment: Bactericidal activity against Klebsiella pneumoniae incubated for 4 hrs followed by culture spread on agar plates and cultured overnight; type: functional; details: read-out: MBC>99.9
[13] = Selectivity ratio of IC50 for pig IPECJ2 cells to geometric mean of the peptide MBC for bacteria
Trypsin = Trypsin (Homo sapiens, UniProt P07477+P07478+P35030); experiment: Stability of the compound assessed as trypsin (unknown origin)-mediated compound hydrolysis after 8 hrs by SDS-PAGE analysis; type: ADME, protein assay
[14] = Antimicrobial activity against Salmonella pullorum C7913 after 24 hrs by NCCLS-protocol based assay; type: functional, Salmonella enterica subsp. enterica serovar Pullorum; details: Salmonella enterica, C7913, 24 h
Acinetobacter baumannii = experiment: Bactericidal activity against Acinetobacter baumannii incubated for 4 hrs followed by culture spread on agar plates and cultured overnight; type: functional; details: read-out: MBC>99.9
Pseudomonas aeruginosa [15] = experiment: Bactericidal activity against Pseudomonas aeruginosa 25349 clinical isolates incubated for 4 hrs followed by culture spread on agar plates and cultured overnight; type: functional; details: Pseudomonas aeruginosa, 25349, 4 h; read-out: MBC>99.9
[16] = Stability of the compound assessed as Tritirachium album proteinase K-mediated compound hydrolysis after 8 hrs by SDS-PAGE analysis; type: ADME; details: parengyodontium album
Escherichia coli [17] = experiment: Antimicrobial activity against Escherichia coli ATCC 25922 after 24 hrs by NCCLS-protocol based assay; type: functional; details: ATCC 25922, 24 h
[18] = Cytotoxicity against IPECJ2 cells assessed as cell death after 18 to 24 hrs by MTT assay; type: cell-based; details: Sus scrofa, IPEC-J2
[19] = Stability of the compound assessed as pepsin (unknown origin)-mediated compound hydrolysis after 8 hrs by SDS-PAGE analysis; type: ADME; details: human
Pseudomonas aeruginosa [20] = experiment: Antimicrobial activity against Pseudomonas aeruginosa 25349 clinical isolates after 24 hrs by NCCLS-protocol based assay; type: functional; details: Pseudomonas aeruginosa, 25349, 24 h
Escherichia coli [21] = experiment: Bactericidal activity against Escherichia coli UB1005 incubated for 4 hrs followed by culture spread on agar plates and cultured overnight; type: functional; details: UB1005, 4 h, read-out: MBC>99.9
Salmonella typhimurium [22] = experiment: Bactericidal activity against Salmonella typhimurium ATCC 14028 incubated for 4 hrs followed by culture spread on agar plates and cultured overnight; type: functional, Salmonella enterica subsp. enterica serovar Typhimurium; details: Salmonella enterica, ATCC 14028, 4 h; read-out: MBC>99.9
Escherichia coli [23] = experiment: Bactericidal activity against Escherichia coli K88 incubated for 4 hrs followed by culture spread on agar plates and cultured overnight; type: functional; details: K88, 4 h, read-out: MBC>99.9
Erythrocyte = experiment: Hemolytic activity against human RBC after 1 hr; type: ADME, cell-based
Pseudomonas aeruginosa [24] = experiment: Bactericidal activity against Pseudomonas aeruginosa PAO1 incubated for 4 hrs followed by culture spread on agar plates and cultured overnight; type: functional; details: PAO1, 4 h, read-out: MBC>99.9
Escherichia coli [25] = experiment: Bactericidal activity against Escherichia coli 078 incubated for 4 hrs followed by culture spread on agar plates and cultured overnight; type: functional; details: Escherichia coli, 078, 4 h; read-out: MBC>99.9
Escherichia coli [26] = experiment: Bactericidal activity against Escherichia coli ATCC 25922 incubated for 4 hrs followed by culture spread on agar plates and cultured overnight in presence of CaCl2; type: functional; details: ATCC 25922, 4 h, read-out: MBC>99.9
Pseudomonas aeruginosa [27] = experiment: Bactericidal activity against Pseudomonas aeruginosa CICC 21625 clinical isolates incubated for 4 hrs followed by culture spread on agar plates and cultured overnight; type: functional; details: CICC 21625, 4 h, read-out: MBC>99.9
Escherichia coli [28] = experiment: Bactericidal activity against Escherichia coli ATCC 25922 incubated for 4 hrs followed by culture spread on agar plates and cultured overnight in presence of 4 mg/ml trypsin; type: functional; details: ATCC 25922, 4 h, read-out: MBC>99.9
Escherichia coli [29] = experiment: Induction of cytoplasmic membrane depolarization in Escherichia coli ATCC 25922 assessed as induction cytoplasmic ONPG release at 2 to 16 uM up to 120 mins by DiSC3-5 dye-based fluorescence spectrophotometric method; type: functional, organism-based
Chymotrypsin [30] = molecular target: T1, Chymotrypsin (Homo sapiens, UniProt Q99895+P17538+P40313+Q6GPI1); experiment: Stability of the compound assessed as chymotrypsin (unknown origin)-mediated compound hydrolysis after 8 hrs by SDS-PAGE analysis; type: ADME, protein assay
[31] = Hemolytic activity against human RBC at 1 to 128 uM after 1 hr; type: ADME, cell-based, Erythrocyte; details: red blood cells (erythrocytes), read-out: Activity
RAW264.7 = experiment: Cytotoxicity against mouse RAW264.7 cells assessed as cell death after 18 to 24 hrs by MTT assay; type: cell-based
Salmonella typhimurium [32] = experiment: Antimicrobial activity against Salmonella typhimurium C7731 after 24 hrs by NCCLS-protocol based assay; type: functional, Salmonella enterica subsp. enterica serovar Typhimurium; details: Salmonella enterica, C7731, 24 h
Pseudomonas aeruginosa [33] = experiment: Antimicrobial activity against Pseudomonas aeruginosa CICC 21630 clinical isolates after 24 hrs by NCCLS-protocol based assay; type: functional; details: CICC 21630, 24 h
[34] = Stability of the compound assessed as pepsin (unknown origin)-mediated compound hydrolysis by measuring compound helicity by CD spectroscopy; type: ADME; details: human
Chymotrypsin [35] = molecular target: T1, Chymotrypsin; experiment: Stability of the compound assessed as chymotrypsin (unknown origin)-mediated compound hydrolysis after 4 hrs by SDS-PAGE analysis; type: ADME, protein assay
Chymotrypsin [36] = molecular target: T1, Chymotrypsin; experiment: Stability of the compound assessed as chymotrypsin (unknown origin)-mediated compound hydrolysis by measuring compound helicity by CD spectroscopy; type: ADME, protein assay

Substance	MIC95 (Escherichia coli [1]) [µM]	MBC (Escherichia coli [2]) [µM]	MBC (Escherichia coli [4]) [µM]	MIC95 (Escherichia coli [7]) [µM]	MIC95 (Pseudomonas aeruginosa [9]) [µM]	MIC95 (Escherichia coli [10]) [µM]	MBC (Salmonella typhimurium [11]) [µM]	MBC (Klebsiella pneumoniae) [µM]	Ratio [13]	Stability (Trypsin)	MIC95 [14] [µM]	MBC (Acinetobacter baumannii) [µM]	MBC (Pseudomonas aeruginosa [15]) [µM]	MIC95 (Escherichia coli [17]) [µM]	pIC50 [18]	Stability [19]	MIC95 (Pseudomonas aeruginosa [20]) [µM]	MBC (Escherichia coli [21]) [µM]	MBC (Salmonella typhimurium [22]) [µM]	MBC (Escherichia coli [23]) [µM]	other results
H-IRPIIRPIIRPIIRPIIRPIIRPIIRPI-NH2	1	16	8	1	4	1	2	4	25.25	Stable	2	1	32	1	3.90	Stable	32	2	2	1	log(activity) (Escherichia coli [3]): 2; Activity (Escherichia coli [5]): Active; Stability [6]: Unstable; Activity (Pseudomonas aeruginosa [8]): Active; Activity (Escherichia coli [12]): >50%; Stability [16]: Stable; HC10 (Erythrocyte): > 128 µM; MBC (Pseudomonas aeruginosa [24]): 8 µM; MBC (Escherichia coli [25]): 1 µM; MBC (Escherichia coli [26]): > 128 µM; MBC (Pseudomonas aeruginosa [27]): 64 µM; MBC (Escherichia coli [28]): 2 µM; Activity (Escherichia coli [29]): Active; Stability (Chymotrypsin [30]): Stable; hemolysis at 1 h, up to 128 µM [31]: < 5%; pIC50 (RAW264.7): 2.25; MIC95 (Salmonella typhimurium [32]): 1 µM; MIC95 (Pseudomonas aeruginosa [33]): 32 µM
H-IKPIIKPIIKPIIKPIIKPIIKPIIKPI-NH2	16	> 128	> 128	2	> 64	2	> 64	64	9.46	Stable	64	2	> 64	8	3.46	Unstable	> 64	4	> 64	2	Stability [6]: Unstable; Stability [16]: Stable; HC10 (Erythrocyte): > 128 µM; MBC (Pseudomonas aeruginosa [24]): > 64 µM; MBC (Escherichia coli [25]): 16 µM; MBC (Escherichia coli [26]): > 128 µM; MBC (Pseudomonas aeruginosa [27]): > 64 µM; MBC (Escherichia coli [28]): 16 µM; Stability (Chymotrypsin [30]): Stable; hemolysis at 1 h, up to 128 µM [31]: < 5%; pIC50 (RAW264.7): 2.56; MIC95 (Salmonella typhimurium [32]): 64 µM; MIC95 (Pseudomonas aeruginosa [33]): > 64 µM
H-LRPLLRPLLRPLLRPLLRPLLRPLLRPL-NH2	1	16	4	1	1	1	2	4	4.11	Stable	1	1	8	1	4.97	Unstable	4	2	2	1	log(activity) (Escherichia coli [3]): 1; Stability [34]: Unstable; Activity (Pseudomonas aeruginosa [8]): Active; Stability (Chymotrypsin [35]): Unstable; Stability (Chymotrypsin [36]): Unstable; HC10 (Erythrocyte): 64 µM; MBC (Pseudomonas aeruginosa [24]): 2 µM; MBC (Escherichia coli [25]): 1 µM; MBC (Escherichia coli [26]): 16 µM; MBC (Pseudomonas aeruginosa [27]): 8 µM; MBC (Escherichia coli [28]): 2 µM; pIC50 (RAW264.7): 5.64; MIC95 (Salmonella typhimurium [32]): 2 µM; MIC95 (Pseudomonas aeruginosa [33]): 2 µM
